Measured values reported in patent US10463710B2, “Short synthetic peptide for the treatment and/or prophylaxis of autoimmune and inflammatory disorders” (MacKay Memorial Hospital, priority 2015, dated 2019).

Experiments:
in vitro = type: cell-based, murine; conditions: mouse
[1] = system: IMQ-induced psoriasis-like skin inflammation; assay: Mouse model of IMQ-induced psoriasis-like skin inflammation; type: in vivo, BALB/c mice
Experimental: All experimental procedures were approved by the Mackay Memorial Hospital Animal Care and Uses Committee and conducted according to national animal welfare regulations. Psoriasis-like skin inflammation was created by treating mouse skin with Imiquimod (IMQ) in accordance with the procedures described by van der Fits et al (J Immunol. (2009), 182, 5836-5845). Accordingly, each BALB/c mice (8 weeks old) received a daily topical dose of 62.5 mg of commercially available IMQ cream (5%) on the shaved back and the right ear for 6 consecutive days; whereas the control mice (normal group) were treated with a control cream. For treatment, 7-mer analogue was mixed with IMQ cream to a concentration 100 μM.
Keratinocyte proliferation was determined by 5-bromo-2′-deoxyuridine (BrdU) incorporation. BrdU (Sigma-Aldrich) was reconstituted in DMSO as a stock solution of 80 mM. 10 μl of BrdU mixed with 90 μl of PBS was intraperitoneally injected into each mouse for 24 hr prior to euthanasia. Back skin was fixed overnight in 4% paraformaldehyde and embedded in paraffin for immunohistochemistry.
In this example, the efficacy of the present synthetic peptides of Example 1 on IMQ-induced psoriasis-like skin inflammation was investigated. To this purpose, animals (8-week-old mice) were given a daily topical dose of IMQ cream on the shaved back for six consecutive days, so as to induce psoriasis-like skin inflammation and desquamation (FIG. 1; left panel).
Psoriasis is a disease resulted from abnormal keratinocyte proliferation, thus the effects of the present synthetic peptides on the proliferation of keratinocytes were also monitored in accordance with procedures described in the section of “Materials and Methods”. Results are illustrated in FIG. 2.

LPS-induced arthritis = assay: Rat model of LPS-induced arthritis; type: in vivo, Sprague-Dawley rats; conditions: 7-mer 1 mM intraarticular along with LPS, 3 days, FIG. 4
Experimental: In this study, acute arthritis was induced by direct injection of lipopolysaccharide (LPS) into rat joints in accordance with the procedures described by Pan R Y et al (J Virol. (1999) 73, 3410-3417). Briefly, adult (about 10 weeks old) male Sprague-Dawley rats (initial body wt=312±11 g) were anesthetized by an intraperitoneal injection of a Xylazine (10 mg/kg) and then randomly assigned to experimental groups; their right knees were later treated with a single intraarticular injection of 25 μl of 5% hyaluronic acid (HA) containing LPS (2 μg and 10 μg) or LPS+7-mer. 7-mer (10 mM stock) was dissolved in 25 μl of 5% HA to final concentration 1 mM. On day 2, the group LPS+7-mer or LPS+7-mer analogue was further treated with 7-mer by a single intraarticular is injection. On day 3, the knee joints were dissected and fixed in a 4% paraformaldehyde (PFA) solution and then decalcified with Shandon TBD-2 decalcifier (Thermo Scientific, Logan, Utah). The joints were then sectioned mid-sagittally and embedded in paraffin blocks. Sections (5 μm in thickness) were longitudinally cut, and stained with hematoxylin and eosin (H&E).
Rheumatoid arthritis (RA) is a chronic inflammatory disease characterized by an inflammation of the synovium leading to the destruction of joint cartilage and eventually the destruction of joint function. […]

[2] = system: OVA-induced allergic conjunctivitis; assay: Mouse model of OVA-induced allergic conjunctivitis; type: in vivo, BALB/c mice; conditions: 7-mer 100 μM eye drop twice a day for 4 days, FIG. 5C
Experimental: BALB/c mice (4- to 5-weeks old females) were sensitized intraperitoneally with 1 μg of ovalbumin (OVA) and 200 μl of 1.5% aluminum hydroxide (ALUM) on days 0 and 7, respectively; and then challenged two times topically in the conjunctival sac with 250 μg of OVA respectively on days 15 and 18. Control mice were given OVA with ALUM in sensitization stages, and PBS in place of OVA in challenge stages. For treatment, 7-mer was mixed with 1% CMC eye drop to a concentration 100 μM. After the OVA challenge (day 15), the mice were randomly assigned to two experimental groups (n=6 per group) and the eye was treated with 20 μl of 7-mer or vehicle eye drop twice a day for 4 days (to day 18). Twenty-four hrs after the final challenge with OVA (day 19), mice were euthanized and their eyes were harvested, fixed overnight in 4% paraformaldehyde and embedded in paraffin. To evaluate the eosinophilic infiltration, sections (5 μm) including eyelids were de-paraffinized and stained with acid-giemsa for detection of eosinophils.
Allergic conjunctivitis (AC) is characterized by conjunctival eosinophilic infiltration. […]

[3] = system: OVA-induced allergic asthma; assay: Mouse model of OVA-induced allergic asthma; type: in vivo, BALB/c mice; conditions: 7-mer 100 μM intranasal twice a day, vs OVA challenged mice, FIG. 6B
Experimental: BALB/c mice (4- to 5-weeks old females) were sensitized intraperitoneally with 1 μg of ovalbumin (OVA) and 200 μl of 1.5% aluminum hydroxide on days 0 and 7, respectively; and then challenged three times by intranasal injection with 250 μg of OVA on days 21, 22 and 23. Control mice were given OVA with ALUM in sensitization stages, and PBS in place of OVA in challenge stages. For treatment, 7-mer analogue was mixed with 1% CMC eye drop to a concentration 100 μM. On day 20 and after the OVA challenge (day 21), the mice were randomly assigned to two experimental groups (n=6 per group) is and the nasal was injected with 20 μl of 7-mer or vehicle drop twice a day for 4 days (to day 23). Twenty-four hrs after the final challenge with OVA (day 24), mice were euthanized and their eyes were harvested, fixed overnight in 4% paraformaldehyde and embedded in paraffin.
In this example, we investigate the efficacy of the present synthetic peptide on allergic asthma by use of the well-characterized murine model of allergic airway disease, employing ovalbumin as the antigen. The experimental murine asthma model was established in accordance with the procedures described in the section of “Materials and Methods,” and as depicted in panel A of FIG. 6.

CC(=O)N[C@@H](CC(=O)O)C(=O)N[C@@H](CC(C)C)C(=O)N[C@@H](Cc1ccc(O)cc1)C(=O)N[C@@H](CCCNC(=N)N)C(=O)N[C@H](C(=O)N[C@@H](CCCNC(=N)N)C(=O)N[C@@H](CO)C(N)=O)C(C)C [7-mer, NH2-Asp-Leu-Tyr-Arg-Val-Arg-Ser-COOH]
viability at 24 h, 20 μM (in vitro; Rar264.7 cell viability): 55 ± 3.66%
viability at 24 h, 20 μM (in vitro; Raw264.7 cell viability): 55.7 ± 4.24%
number of BrdU-positive keratinocytes ([1]; 7-mer topically or via intraperitoneal injection, FIG. 2): significantly reduced
level of skin inflammation and desquamation ([1]; topical cream containing IMQ and 7-mer peptide 100 μM, six consecutive days, FIG. 1): reduced significantly
inflammation in the knee (synoviocyte proliferation, leukocyte infiltration, H&E) (LPS-induced arthritis): significantly attenuated
infiltration of eosinophils in the conjunctiva [2]: decreased significantly
inflammatory cell infiltration (peribronchial, perivascular; H&E) [3]: significantly reduced
mucus secretion (PAS staining) [3]: markedly reduced
